Data on one molecule can be found in article PMC7957392, “Yeast translation elongation factor eEF3 promotes late stages of tRNA translocation” (The EMBO Journal, 2021).

The target in this assay is T1, eEF3 (C‐terminally TAP‐tagged, in native eEF3‐80S complex) (Saccharomyces cerevisiae, UniProt P16521).
T1 construct: gene YEF3; final 68 C-terminal residues including tag not modelled
T1 sequence (P16521 2-1044): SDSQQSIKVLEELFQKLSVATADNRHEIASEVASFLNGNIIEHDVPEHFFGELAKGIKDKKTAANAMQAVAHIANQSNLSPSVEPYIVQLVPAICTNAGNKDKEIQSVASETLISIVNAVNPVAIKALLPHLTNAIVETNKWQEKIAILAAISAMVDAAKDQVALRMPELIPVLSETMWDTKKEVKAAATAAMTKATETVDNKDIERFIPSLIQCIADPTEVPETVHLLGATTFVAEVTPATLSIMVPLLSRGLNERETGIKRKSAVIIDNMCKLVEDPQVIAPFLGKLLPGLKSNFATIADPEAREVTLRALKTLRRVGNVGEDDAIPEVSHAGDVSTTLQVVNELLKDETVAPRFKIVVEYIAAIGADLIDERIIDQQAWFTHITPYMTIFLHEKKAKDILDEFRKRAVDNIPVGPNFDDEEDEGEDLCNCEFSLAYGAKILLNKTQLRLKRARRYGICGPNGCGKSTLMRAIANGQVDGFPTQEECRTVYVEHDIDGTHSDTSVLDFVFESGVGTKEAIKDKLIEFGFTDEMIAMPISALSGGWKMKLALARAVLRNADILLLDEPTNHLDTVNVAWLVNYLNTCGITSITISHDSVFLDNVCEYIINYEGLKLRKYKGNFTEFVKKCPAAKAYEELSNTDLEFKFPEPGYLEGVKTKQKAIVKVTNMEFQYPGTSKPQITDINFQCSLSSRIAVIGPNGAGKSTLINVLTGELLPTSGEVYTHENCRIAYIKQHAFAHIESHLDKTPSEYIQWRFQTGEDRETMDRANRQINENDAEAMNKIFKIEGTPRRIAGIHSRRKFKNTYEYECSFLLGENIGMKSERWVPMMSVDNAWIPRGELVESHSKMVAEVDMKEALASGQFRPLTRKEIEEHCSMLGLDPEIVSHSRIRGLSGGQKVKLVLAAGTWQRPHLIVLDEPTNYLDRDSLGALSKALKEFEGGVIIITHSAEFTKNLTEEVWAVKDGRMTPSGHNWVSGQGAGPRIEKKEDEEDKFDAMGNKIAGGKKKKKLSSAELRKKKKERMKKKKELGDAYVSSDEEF
Kind of assay: cryo-EM structure of native eEF3-80S complex ([…] Å). The following applies: ABC1 and ABC2 nucleotide-binding sites; complex eluted with 1 mM ADPNP, pH 7.4, 10 mM Mg(OAc)2; density assigned by authors as ATP (or ADPNP), identity not resolved.

For the molecule `Nc1ncnc2c1ncn2[C@@H]1O[C@H](COP(=O)(O)OP(=O)(O)NP(=O)(O)O)[C@@H](O)[C@H]1O` [ADPNP], the “cryo-EM structure of native eEF3-80S complex (3.3 Å)” value is on record as “electron density consistent with ATP (or ADPNP) was observed in the active sites of ABC1”.
